Measured values from PubChem BioAssay (NCI).
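Grown in 96-well plates, cells were treated for 48 hours with each compound at five concentrations. Insufficient inhibition: endpoint recorded as highest concentration tested. Here, GI50 denotes the concentration required for 50% inhibition of growth. TGI is the concentration that stops growth completely.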

Tests used:
Experiment in all cases: NCI-60 cell line screen, 48 h
OVCAR-3 ovarian = system: OVCAR-3 ovarian
K-562 leukemia = system: K-562 leukemia
NCI-H23 lung = system: NCI-H23 lung
U251 CNS = system: U251 CNS
A498 renal = system: A498 renal
MCF7 breast = system: MCF7 breast
SF-539 CNS = system: SF-539 CNS
786-0 renal = system: 786-0 renal
NCI-H226 lung = system: NCI-H226 lung
MDA-MB-435 = system: MDA-MB-435
IGROV1 ovarian = system: IGROV1 ovarian
HOP-92 NSCLC = system: HOP-92 NSCLC
SK-OV-3 ovarian = system: SK-OV-3 ovarian
OVCAR-8 ovarian = system: OVCAR-8 ovarian
HCC-2998 colon = system: HCC-2998 colon
RXF 393 renal = system: RXF 393 renal
DU-145 prostate = system: DU-145 prostate
SF-268 CNS = system: SF-268 CNS
HT29 colon = system: HT29 colon
SNB-75 CNS = system: SNB-75 CNS
NCI-H460 lung = system: NCI-H460 lung
PC-3 prostate = system: PC-3 prostate
NCI-H522 lung = system: NCI-H522 lung
COLO 205 colon = system: COLO 205 colon
HCT-15 colon = system: HCT-15 colon
A549 NSCLC = system: A549 NSCLC
HCT-116 colon = system: HCT-116 colon
HS 578T breast = system: HS 578T breast
SN12C renal = system: SN12C renal
OVCAR-5 ovarian = system: OVCAR-5 ovarian
HL-60(TB) leukemia = system: HL-60(TB) leukemia
CAKI-1 renal = system: CAKI-1 renal
SK-MEL-5 melanoma = system: SK-MEL-5 melanoma
UACC-62 melanoma = system: UACC-62 melanoma
BT-549 breast = system: BT-549 breast
UACC-257 melanoma = system: UACC-257 melanoma
MALME-3M melanoma = system: MALME-3M melanoma
UO-31 renal = system: UO-31 renal
T-47D breast = system: T-47D breast
OVCAR-4 ovarian = system: OVCAR-4 ovarian
TK-10 renal = system: TK-10 renal
MDA-MB-231 breast = system: MDA-MB-231 breast
M14 melanoma = system: M14 melanoma
SK-MEL-28 melanoma = system: SK-MEL-28 melanoma
KM12 colon = system: KM12 colon
SF-295 CNS = system: SF-295 CNS
SNB-19 CNS = system: SNB-19 CNS
CCRF-CEM leukemia = system: CCRF-CEM leukemia
EKVX NSCLC = system: EKVX NSCLC
SW-620 colon = system: SW-620 colon
HOP-62 NSCLC = system: HOP-62 NSCLC
MOLT-4 leukemia = system: MOLT-4 leukemia
ACHN renal = system: ACHN renal
LOX IMVI melanoma = system: LOX IMVI melanoma
NCI/ADR-RES ovarian = system: NCI/ADR-RES ovarian
SK-MEL-2 melanoma = system: SK-MEL-2 melanoma
RPMI-8226 leukemia = system: RPMI-8226 leukemia

Q: Which results are given for COc1ccc(/C(COc2ccc3c(=O)c(-c4ccccc4)coc3c2)=N\O)cc1?
A: GI50 (OVCAR-3 ovarian): 0.987 µM; TGI (OVCAR-3 ovarian): 10.8 µM; GI50 (K-562 leukemia): 0.0674 µM; TGI (K-562 leukemia): > 100 µM; GI50 (NCI-H23 lung): 19.3 µM; TGI (NCI-H23 lung): 62.8 µM; GI50 (U251 CNS): 1.1 µM; TGI (U251 CNS): > 39.6 µM; GI50 (A498 renal): 3.22 µM; TGI (A498 renal): 18.5 µM; GI50 (MCF7 breast): 3.16 µM; TGI (MCF7 breast): > 50.9 µM; GI50 (SF-539 CNS): 1.6 µM; TGI (SF-539 CNS): 5.32 µM; GI50 (786-0 renal): 16.9 µM; TGI (786-0 renal): 38.5 µM; GI50 (NCI-H226 lung): 15.2 µM; TGI (NCI-H226 lung): 89 µM; GI50 (MDA-MB-435): 2.17 µM; TGI (MDA-MB-435): 4.64 µM; GI50 (IGROV1 ovarian): 7.37 µM; TGI (IGROV1 ovarian): 38.3 µM; GI50 (HOP-92 NSCLC): 8.83 µM; TGI (HOP-92 NSCLC): 47 µM; GI50 (SK-OV-3 ovarian): 10.1 µM; TGI (SK-OV-3 ovarian): 29.5 µM; GI50 (OVCAR-8 ovarian): 12.1 µM; TGI (OVCAR-8 ovarian): 64.3 µM; GI50 (HCC-2998 colon): 3.09 µM; TGI (HCC-2998 colon): 9.15 µM; GI50 (RXF 393 renal): 7.81 µM; TGI (RXF 393 renal): > 80.7 µM; GI50 (DU-145 prostate): 4.09 µM; TGI (DU-145 prostate): 33.4 µM; GI50 (SF-268 CNS): 6.36 µM; TGI (SF-268 CNS): > 78.5 µM; GI50 (HT29 colon): 2.89 µM; TGI (HT29 colon): > 44.5 µM; GI50 (SNB-75 CNS): 14.5 µM; TGI (SNB-75 CNS): > 70.9 µM; GI50 (NCI-H460 lung): 4 µM; TGI (NCI-H460 lung): 31.7 µM; GI50 (PC-3 prostate): 6.53 µM; TGI (PC-3 prostate): 58.7 µM; GI50 (NCI-H522 lung): 4.65 µM; TGI (NCI-H522 lung): 20.6 µM; GI50 (COLO 205 colon): 9.66 µM; TGI (COLO 205 colon): > 36.3 µM; GI50 (HCT-15 colon): 0.349 µM; TGI (HCT-15 colon): 12.9 µM; GI50 (A549 NSCLC): 14.8 µM; TGI (A549 NSCLC): > 83.6 µM; GI50 (HCT-116 colon): 18.3 µM; TGI (HCT-116 colon): 44.6 µM; GI50 (HS 578T breast): 3.79 µM; TGI (HS 578T breast): 44.6 µM; GI50 (SN12C renal): 1.65 µM; TGI (SN12C renal): 16.4 µM; TGI (OVCAR-5 ovarian): > 96.5 µM; GI50 (HL-60(TB) leukemia): 0.119 µM; TGI (HL-60(TB) leukemia): 2.2 µM; GI50 (CAKI-1 renal): 1.46 µM; TGI (CAKI-1 renal): 7.47 µM; GI50 (SK-MEL-5 melanoma): 0.394 µM; TGI (SK-MEL-5 melanoma): 4.74 µM; GI50 (UACC-62 melanoma): 0.662 µM; TGI (UACC-62 melanoma): 21.2 µM; GI50 (BT-549 breast): 8.27 µM; TGI (BT-549 breast): 54.7 µM; GI50 (UACC-257 melanoma): 17.9 µM; TGI (UACC-257 melanoma): > 60 µM; GI50 (MALME-3M melanoma): 0.72 µM; TGI (MALME-3M melanoma): 5.91 µM; GI50 (UO-31 renal): 9.02 µM; TGI (UO-31 renal): 27.7 µM; GI50 (T-47D breast): 6.96 µM; TGI (T-47D breast): > 37.2 µM; GI50 (OVCAR-4 ovarian): 16.1 µM; TGI (OVCAR-4 ovarian): > 100 µM; GI50 (TK-10 renal): 0.988 µM; TGI (TK-10 renal): 9.22 µM; GI50 (MDA-MB-231 breast): 0.698 µM; TGI (MDA-MB-231 breast): 18.5 µM; GI50 (M14 melanoma): 8.49 µM; TGI (M14 melanoma): 23.8 µM; GI50 (SK-MEL-28 melanoma): 10.2 µM; TGI (SK-MEL-28 melanoma): > 90.9 µM; GI50 (KM12 colon): 1.5 µM; TGI (KM12 colon): 40.4 µM; GI50 (SF-295 CNS): 2.59 µM; TGI (SF-295 CNS): 25.5 µM; GI50 (SNB-19 CNS): 14.9 µM; TGI (SNB-19 CNS): > 86.7 µM; GI50 (CCRF-CEM leukemia): 3.9 µM; TGI (CCRF-CEM leukemia): > 100 µM; GI50 (EKVX NSCLC): 4.94 µM; TGI (EKVX NSCLC): 38.7 µM; GI50 (SW-620 colon): 2.37 µM; TGI (SW-620 colon): 16.9 µM; GI50 (HOP-62 NSCLC): 8.52 µM; TGI (HOP-62 NSCLC): 33.7 µM; GI50 (MOLT-4 leukemia): 1.08 µM; TGI (MOLT-4 leukemia): > 100 µM; GI50 (ACHN renal): 11.3 µM; TGI (ACHN renal): 34 µM; GI50 (LOX IMVI melanoma): 4.73 µM; TGI (LOX IMVI melanoma): > 45.9 µM; GI50 (NCI/ADR-RES ovarian): 0.652 µM; TGI (NCI/ADR-RES ovarian): 35.5 µM; GI50 (SK-MEL-2 melanoma): 3.5 µM; TGI (SK-MEL-2 melanoma): 23.7 µM; GI50 (RPMI-8226 leukemia): 2.29 µM; TGI (RPMI-8226 leukemia): > 54.2 µM

Q: How did the TGI (OVCAR-3 ovarian) turn out when COc1cc2nc(-c3cccs3)nc(N3CCN(c4ccccc4C(F)(F)F)CC3)c2cc1OC was run?
A: > 100 µM

Q: What about the TGI (K-562 leukemia) of the same molecule?
A: > 100 µM

Q: What about the TGI (NCI-H23 lung) of the same molecule?
A: > 100 µM

Q: What about the TGI (U251 CNS) of the same molecule?
A: > 100 µM

Q: And the TGI (A498 renal)?
A: > 100 µM

Q: What about the TGI (MCF7 breast) of the same molecule?
A: > 100 µM

Q: And the TGI (SF-539 CNS)?
A: > 100 µM

Q: What about the TGI (786-0 renal) of the same molecule?
A: > 100 µM

Q: What about the TGI (NCI-H226 lung) of the same molecule?
A: > 100 µM

Q: What about the TGI (MDA-MB-435) of the same molecule?
A: > 100 µM

Q: What about the TGI (IGROV1 ovarian) of the same molecule?
A: > 100 µM

Q: And the TGI (HOP-92 NSCLC)?
A: > 100 µM

Q: What about the TGI (SK-OV-3 ovarian) of the same molecule?
A: > 100 µM

Q: What about the TGI (OVCAR-8 ovarian) of the same molecule?
A: > 100 µM

Q: What about the TGI (HCC-2998 colon) of the same molecule?
A: > 100 µM

Q: And the TGI (DU-145 prostate)?
A: > 100 µM

Q: What about the TGI (SF-268 CNS) of the same molecule?
A: > 100 µM

Q: And the TGI (HT29 colon)?
A: > 100 µM

Q: What about the TGI (SNB-75 CNS) of the same molecule?
A: > 100 µM

Q: What about the TGI (NCI-H460 lung) of the same molecule?
A: > 100 µM

Q: And the TGI (PC-3 prostate)?
A: > 100 µM

Q: And the TGI (NCI-H522 lung)?
A: > 100 µM

Q: And the TGI (COLO 205 colon)?
A: > 100 µM

Q: What about the TGI (HCT-15 colon) of the same molecule?
A: > 100 µM

Q: And the TGI (A549 NSCLC)?
A: > 100 µM

Q: And the TGI (HCT-116 colon)?
A: > 100 µM

Q: And the TGI (HS 578T breast)?
A: > 100 µM

Q: And the TGI (SN12C renal)?
A: > 100 µM

Q: What about the TGI (OVCAR-5 ovarian) of the same molecule?
A: > 100 µM

Q: And the TGI (HL-60(TB) leukemia)?
A: > 100 µM

Q: And the TGI (CAKI-1 renal)?
A: > 100 µM

Q: What about the TGI (SK-MEL-5 melanoma) of the same molecule?
A: > 100 µM

Q: What about the TGI (UACC-62 melanoma) of the same molecule?
A: > 100 µM

Q: And the TGI (BT-549 breast)?
A: > 100 µM

Q: And the TGI (UACC-257 melanoma)?
A: > 100 µM

Q: And the TGI (MALME-3M melanoma)?
A: > 100 µM

Q: And the TGI (UO-31 renal)?
A: > 100 µM

Q: And the TGI (T-47D breast)?
A: > 100 µM

Q: What about the TGI (OVCAR-4 ovarian) of the same molecule?
A: > 100 µM

Q: And the TGI (TK-10 renal)?
A: > 100 µM

Q: What about the TGI (MDA-MB-231 breast) of the same molecule?
A: > 100 µM

Q: And the TGI (M14 melanoma)?
A: > 100 µM

Q: What about the TGI (SK-MEL-28 melanoma) of the same molecule?
A: > 100 µM

Q: What about the TGI (KM12 colon) of the same molecule?
A: > 100 µM

Q: What about the TGI (SF-295 CNS) of the same molecule?
A: > 100 µM

Q: And the TGI (SNB-19 CNS)?
A: > 100 µM

Q: And the TGI (CCRF-CEM leukemia)?
A: > 100 µM

Q: And the TGI (EKVX NSCLC)?
A: > 100 µM

Q: And the TGI (SW-620 colon)?
A: > 100 µM

Q: What about the TGI (HOP-62 NSCLC) of the same molecule?
A: > 100 µM

Q: And the TGI (MOLT-4 leukemia)?
A: > 100 µM

Q: What about the TGI (ACHN renal) of the same molecule?
A: > 100 µM

Q: What about the TGI (LOX IMVI melanoma) of the same molecule?
A: > 100 µM

Q: And the TGI (NCI/ADR-RES ovarian)?
A: > 100 µM

Q: What about the TGI (SK-MEL-2 melanoma) of the same molecule?
A: > 100 µM

Q: What about the TGI (RPMI-8226 leukemia) of the same molecule?
A: > 100 µM
